PubChem BioAssay (NCI)
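Growth conditions: 96-well plates. Treatment: test compound, 48 hours, 5 concentrations. Analysis: linear interpolation between bracketing concentrations; unreached endpoints set to highest concentration. At the TGI there is no net growth.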

How the values were obtained:
Experiment in all cases: growth of human tumour cells (NCI), 48 h
786-0 renal = test system: 786-0 renal
CCRF-CEM leukemia = test system: CCRF-CEM leukemia
COLO 205 colon = test system: COLO 205 colon
HCT-116 colon = test system: HCT-116 colon
HCT-15 colon = test system: HCT-15 colon
HOP-62 NSCLC = test system: HOP-62 NSCLC
HT29 colon = test system: HT29 colon
MCF7 breast = test system: MCF7 breast
NCI-H23 lung = test system: NCI-H23 lung
NCI-H460 lung = test system: NCI-H460 lung
NCI-H522 lung = test system: NCI-H522 lung
SK-MEL-28 melanoma = test system: SK-MEL-28 melanoma
SN12C renal = test system: SN12C renal
SW-620 colon = test system: SW-620 colon

SMILES | TGI (786-0 renal) [µM] | TGI (CCRF-CEM leukemia) [µM] | TGI (COLO 205 colon) [µM] | TGI (HCT-116 colon) [µM] | TGI (HCT-15 colon) [µM] | TGI (HOP-62 NSCLC) [µM] | TGI (HT29 colon) [µM] | TGI (MCF7 breast) [µM] | TGI (NCI-H23 lung) [µM] | TGI (NCI-H460 lung) [µM] | TGI (NCI-H522 lung) [µM] | TGI (SK-MEL-28 melanoma) [µM] | TGI (SN12C renal) [µM] | TGI (SW-620 colon) [µM]
COC(=O)C1CC2(C)C=CC1N(C(=O)OCc1ccccc1)C2 (stereo unspecified) | > 100 | > 100 | > 100 | > 100 | > 100 | > 100 | > 100 | > 100 | > 100 | > 100 | > 100 | > 100 | > 100 | > 100
COC(=O)c1ccccc1C1CN=NC12Cc1c(ccc3c1CCC3)C2=O (stereo unspecified) | > 100 | > 100 | > 100 | > 100 | > 100 | > 100 | > 100 | > 100 | > 100 | > 100 | 43.7 | > 100 | > 100 | > 100
Cc1cc(S(=O)(=O)Nc2nc3ncccc3[nH]2)c(S)cc1Cl | > 100 | > 100 | > 100 | > 100 | > 100 | > 100 | > 100 | > 100 | > 100 | > 100 | > 100 | > 100 | > 100 | > 100
Cc1ccc(S(=O)(=O)N2C[C@@H]3CC[C@]4(CO[Si](C)(C)C(C)(C)C)N[C@@H](c5ccccc5)[C@H]2[C@H]34)cc1 | > 100 | > 100 | 58.8 | > 100 | > 100 | > 100 | 42.6 | > 100 | > 100 | > 100 | > 100 | > 100 | 76.2 | > 100
COc1ccc(-n2c(=O)c3[nH]c(=S)[nH]c3n(-c3ccc(OC)cc3)c2=S)cc1 | > 100 | > 100 | > 100 | > 100 | > 100 | > 100 | > 100 | > 100 | > 100 | > 100 | > 100 | > 100 | > 100 | > 100
O=C(O)CSc1ccccc1C(=O)O | > 100 | > 100 | > 100 | > 100 | > 100 | > 100 | > 100 | > 100 | > 100 | 38.1 | > 100 | > 100 | > 100 | > 100
CC(=O)O[C@H]1CC[C@@]2(C)C(=CC[C@@H]3[C@@H]2CC[C@]2(C)C(=N/O)/C(=C\c4ccccc4)C[C@@H]32)C1 | > 55.4 | > 100 | 32 | > 100 | > 100 | 71.6 | > 100 | > 100 | > 100 | 97.9 | 21.2 | > 56.3 | 38.1 | > 60.9
O=[N+]([O-])c1ccc(NN=C2CN3CCN(C2)c2ccccc23)c([N+](=O)[O-])c1 | > 100 | > 100 | > 100 | > 100 | > 100 | > 100 | > 100 | > 100 | > 100 | > 100 | > 100 | > 100 | > 100 | > 100
COc1cccc(N=N/C(=N/NC(=O)c2ccc(C)cc2)c2ccc(N(CCC#N)CCC#N)cc2OC)c1 | > 100 | > 100 | > 100 | > 100 | > 100 | > 100 | 35.5 | > 100 | > 100 | > 100 | > 100 | > 100 | > 100 | > 100
COC(=O)[C@H](Cc1c[nH]c2ccccc12)NP(=O)(OCCC#N)OCC1OC(n2cc(C)c(=O)[nH]c2=O)CC1N=[N+]=[N-] (stereo partly specified) | > 100 | > 100 | > 100 | > 100 | > 100 | > 100 | > 100 | > 100 | > 100 | > 100 | > 100 |  | > 100 | > 100
Cn1cnc(N)c(N=O)c1=O | > 10 | > 10 | > 10 | > 10 | > 10 | > 10 | > 10 | > 10 | > 10 | > 10 | > 10 | > 10 | > 10 | > 10
COc1cc2cc(C(=O)N3CC(COS(C)(=O)=O)c4ccc(NC(=O)OCc5ccccc5)cc43)[nH]c2c(OC)c1OC (stereo unspecified) | > 100 | > 100 | > 100 | > 100 | > 100 | > 100 | > 100 | > 100 | > 100 | > 100 | > 100 | > 100 | > 100 | > 100
O=C1COc2cc(N3CCN(c4cccc(C(F)(F)F)c4)CC3)ccc2N1 | > 100 | > 100 | > 100 | > 100 | > 100 | > 100 | > 100 | > 100 | > 100 | > 100 | > 100 | > 100 | > 100 | > 100
O=c1[nH]nc(-c2ccccc2)n1/N=C/c1ccc([N+](=O)[O-])o1 | > 31.7 | 19.6 | 8.47 | 5.55 | 17.3 | 19.7 | > 48.7 | 7.21 |  | > 22.6 | 6.83 | 10.3 | 13.5 | 15.2
CC(=O)n1cc(C2CC23N=C(c2ccccc2)OC3=O)c2ccccc21 (stereo unspecified) | 33.5 | 7.86 | 44.8 | 27.9 | 58.9 | > 100 | 39.9 | 42.9 | 42 | > 64.9 | 37.3 | 45.6 | 31.9 | 56.7
C=C(C(=O)O[C@H]1C/C(C)=C/CC/C(CO)=C/[C@H]2C(=O)OC(=C)[C@H]12)C(O)CO (stereo partly specified) | 18.4 | 4.92 | 13.4 | 19.6 | 24.4 | > 59.9 | 38.7 | 25.6 | 32.7 | 31.6 | 3.3 | 30.8 | 30.6 | 14.4

SMILES | TGI (786-0 renal) [µM] | TGI (CCRF-CEM leukemia) [µM] | TGI (COLO 205 colon) [µM] | TGI (HCT-116 colon) [µM] | TGI (HCT-15 colon) [µM] | TGI (HOP-62 NSCLC) [µM] | TGI (HT29 colon) [µM] | TGI (MCF7 breast) [µM] | TGI (NCI-H23 lung) [µM] | TGI (NCI-H460 lung) [µM] | TGI (NCI-H522 lung) [µM] | TGI (SK-MEL-28 melanoma) [µM] | TGI (SN12C renal) [µM] | TGI (SW-620 colon) [µM]
NNC(=O)Nc1nc2ccc(NN)cc2[nH]1 | > 100 | 41.7 | 37.3 | > 100 | > 100 | > 100 | > 100 | 82.5 | > 100 | > 100 | 92.6 | 56.8 | > 100 | 67.4
C[C@@H]1[C@@H](C)C(c2ccccc2)O[Si]1(C(C)(C)C)C(C)(C)C (stereo partly specified) | 29.4 | 46.2 | 30.3 | 28.8 | > 55.3 | 31.4 | 31 | 31.9 | 30.3 | 32.2 | 28.7 | > 66.7 | 31.3 | 34.9
CCN1C/C(=C\c2ccc(Cl)cc2)c2nc(N)c(C#N)c(-c3ccc(Cl)cc3)c2C1 | > 100 | > 100 | > 100 | > 100 | > 100 | > 100 | > 100 | > 100 | > 100 | > 100 | > 100 | > 100 |  | > 100
CC(C)(C)OC(=O)NC12C3C4C1C1C2C3C41NC(=O)OC(C)(C)C (stereo unspecified) | > 100 | 61.7 | > 100 | > 100 | > 100 | > 100 | > 100 | 95.9 | > 100 | > 100 | > 100 | > 100 | > 100 | > 100
N#Cc1c(-c2ccc(Cl)cc2)cc(-c2ccc(Nc3ccnc4cc(Cl)ccc34)cc2)[nH]c1=O | > 100 | 31.6 | > 100 | > 100 | > 100 | > 62.8 | > 100 | > 100 | > 75.9 | > 100 | > 100 | > 100 |  | > 100
O=C(Nc1sccc1S(=O)(=O)c1ccc(Cl)cc1)c1ccc(F)cc1F | 36.5 | 37.8 | > 100 | > 100 | > 100 | 80.1 | > 100 | > 100 | 54.9 |  | 51.9 | > 100 | > 100 | > 100
Cc1ccc(S(=O)(=O)NC(CCC(=O)NNc2ccccc2)C(=O)NNc2ccccc2)cc1 (stereo unspecified) | > 100 | > 100 | 54.1 | > 100 | > 100 | > 100 | > 100 | > 100 | > 100 | 51.6 | > 100 |  |  | > 100
C#CC(O)(c1nc2ccccc2s1)c1nc2ccccc2s1 | 38.9 | 79 | 40 | 30.2 | 60.6 | 85.1 | 77.6 | 52.9 | 56.1 |  | 39.7 | > 100 | 42.6 | > 100
CCCCc1ccc(Nc2ncc3ncn(COCCO)c3n2)cc1 | > 100 | 60.6 | > 100 | 65.4 | > 100 | > 100 | 50 | > 100 | > 100 | 57.9 | > 100 |  | > 100 | > 100
CSC(SC)=C(C#N)C(=O)Nc1cccc(Cl)c1 | > 100 | > 100 | > 100 | > 100 | > 100 | > 100 | > 100 | > 100 |  | > 100 | 43.8 | > 100 | > 100 | > 100
CC1=NN(c2cccc(Cl)c2)C2(C1=Cc1ccc(O)cc1)C(Cl)C(=O)N2c1nc2ccccc2s1 (stereo unspecified) | 80.6 | > 100 |  | 31.3 | 32.1 | 51.8 | 63.3 | 98.4 | 38.4 | 89.3 | 49 | > 100 |  | 34.8
O=c1[nH]c(=O)n(C2CC(O)C(CO)O2)cc1Oc1ccccc1 (stereo unspecified) | > 100 | > 100 | > 100 | > 100 | > 100 | > 100 | > 100 | > 100 | > 100 | > 100 | > 100 | > 100 | > 100 | 
FC(F)(F)c1cc(N(C2c3ccccc3C=Cc3ccccc32)P(Cl)Cl)cc(C(F)(F)F)c1 | 35.5 | 82.3 | 51.6 | 40.3 | 45.5 | 37.3 | > 100 | 50 | 97.7 |  | 28.6 | 87.8 | 32.7 | 82.6
COc1cc(/C=C2\CC/C(=C\c3cc(OC)c(O)c(OC)c3)C2=O)cc(OC)c1O | > 100 | 23.1 | 54.2 | > 23.2 | 18.7 | > 100 | > 100 | > 26.7 | 5.72 | > 100 | 2.75 |  | > 29.3 | > 100
O=C(c1ccccc1)c1ccc2nc(-c3c(Cl)c(Cl)c(Cl)c(Cl)c3-c3nnc(-c4ccccc4)o3)[nH]c2c1 | > 100 | > 100 | > 100 | > 100 | > 100 | > 100 | > 100 | > 100 | > 100 |  | 55.7 | > 100 | 81.7 | > 100
CN1/C(=C/C=C/C=C/C=C2C(=O)c3ccccc3C2=O)C(C)(C)c2ccccc21 | > 100 | > 100 | > 100 | > 100 | > 100 | > 100 | > 100 | > 100 | > 100 | > 100 | > 100 |  | > 100 | > 100
